Data on 13 compounds can be found in patent US9920053B2, “N-(hetero)aryl-substituted heteroyclic derivatives useful for the treatment of diseases or conditions related to the central nervous system” (CHRONOS THERAPEUTICS LIMITED, priority 2014, dated 2018).

For data set [1], the target named is human ERG potassium channel (hERG) (Homo sapiens (Human), UniProt Q12809). In words: hERG channel tail current recording using Rapid ICE automated patch-clamp. It is filed as cell-based. Particulars: HEK293 cells stably transfected with hERG. The protocol: The potency of the compounds of the invention in inhibiting human ERG potassium channel (hERG) tail current is assessed in a recombinant HEK293 cell line stably transfected with hERG cDNA using Rapid ICE™ (Rapid Ion Channel Electrophysiology) assay. Rapid ICE™ is an automated patch-clamp assay utilizing the PatchXpress 7000A system (Molecular Devices Corporation) or the QPatch HTX system (Sophion Bioscience A/S).
human ERG potassium channel (hERG), sequence (Q12809 whole entry): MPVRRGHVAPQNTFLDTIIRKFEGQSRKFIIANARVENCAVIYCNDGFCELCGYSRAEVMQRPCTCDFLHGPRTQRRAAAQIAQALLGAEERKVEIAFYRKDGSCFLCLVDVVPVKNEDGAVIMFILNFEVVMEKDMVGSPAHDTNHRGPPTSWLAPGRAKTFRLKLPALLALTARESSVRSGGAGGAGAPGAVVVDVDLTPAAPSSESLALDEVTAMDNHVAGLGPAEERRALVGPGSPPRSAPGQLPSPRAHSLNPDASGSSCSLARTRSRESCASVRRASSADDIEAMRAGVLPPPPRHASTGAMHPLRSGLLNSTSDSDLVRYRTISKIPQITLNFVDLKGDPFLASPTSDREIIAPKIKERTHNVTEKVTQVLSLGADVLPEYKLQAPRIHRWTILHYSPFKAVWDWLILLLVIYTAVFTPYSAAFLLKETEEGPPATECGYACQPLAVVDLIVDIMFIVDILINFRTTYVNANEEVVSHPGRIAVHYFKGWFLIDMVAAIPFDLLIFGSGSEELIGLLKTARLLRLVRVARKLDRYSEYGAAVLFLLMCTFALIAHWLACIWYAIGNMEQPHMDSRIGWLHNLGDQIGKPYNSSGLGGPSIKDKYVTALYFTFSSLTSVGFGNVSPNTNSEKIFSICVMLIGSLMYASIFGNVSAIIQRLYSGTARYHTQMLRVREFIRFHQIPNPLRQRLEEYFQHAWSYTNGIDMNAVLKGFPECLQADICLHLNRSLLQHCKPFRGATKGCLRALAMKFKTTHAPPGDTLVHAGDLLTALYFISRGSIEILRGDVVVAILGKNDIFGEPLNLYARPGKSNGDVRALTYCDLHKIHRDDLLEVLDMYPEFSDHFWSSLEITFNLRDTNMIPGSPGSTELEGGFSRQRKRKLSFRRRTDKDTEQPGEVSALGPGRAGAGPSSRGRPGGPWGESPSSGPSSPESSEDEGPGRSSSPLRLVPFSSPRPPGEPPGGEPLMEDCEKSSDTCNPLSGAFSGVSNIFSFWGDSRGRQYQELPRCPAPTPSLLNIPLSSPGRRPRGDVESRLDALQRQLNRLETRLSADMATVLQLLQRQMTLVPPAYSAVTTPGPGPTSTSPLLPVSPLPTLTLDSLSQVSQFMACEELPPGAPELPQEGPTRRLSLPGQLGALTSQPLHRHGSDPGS
Briefly cells are cultivated for 24 to 72 hours before recordings in minimum essential medium supplemented with 10% FBS, 1% non-essential amino acids, 1% sodium pyruvate, 2 mM L-glutamine. The day of the experiment cells are detached with TrypLE and prepared to be loaded on the instrument. For PatchXpress cells are finally resuspended in 150 μl of Extracellular Buffer whereas for QPatch cells are resuspended in 7 ml Serum-Free Media containing 25 mM Hepes and Soybean trypsin inhibitor and immediately placed in the cell storage tank of the machine. The composition of the Extracellular Buffer is (mM): NaCl 137; KCl 4; CaCl2 1.8; MgCl2 1.0; D-glucose 10; N 2 hydroxyethylpiperazine-N′-2-ethanesulfonic acid (HEPES) 10; pH 7.4 with 1 M NaOH. The composition of the pipette solution is (mM): KCl 130; MgCl2 1.0; Ethylene glycol-bis(β-aminoethyl ether)-N,N,N′,N′-tetraacetic acid (EGTA) 5; MgATP 5; HEPES 10; pH 7.2 with 1 M KOH. The voltage protocol includes the following steps: step from −80 mV to −50 mV for 200 ms, +20 mV for 4.8 s, step to −50 mV for 5 s then step to the holding potential of −80 mV. Compounds of the invention are dissolved in DMSO and diluted in Extracellular Buffer to achieve final test concentrations (0.1, 1 and 10 μM) in 0.1% DMSO. The voltage protocol is run and recorded continuously during the experiment. The vehicle, corresponding to 0.1% DMSO in Extracellular Buffer, is then applied for 3 min followed by the test substance in triplicate. The standard combined exposure time is 5 min. The average of tail current amplitude values recorded from 4 sequential voltage pulses is used to calculate for each cell the effect of the test substance by calculating the residual current (% control) compared with vehicle pre-treatment. Data are reported as % inhibition for each concentration tested and IC50 values are estimated using DataXpress or QPatch software. At least two cells are tested, more if results diverge.

The target of data set [2] is human dopamine transporter (DAT) (Homo sapiens (Human), UniProt Q01959). The data set is described as follows: Scintillation Proximity Assay (SPA) for human DAT binding ([3H]WIN-35,428). The following applies: recombinant human DAT, CHO. From the text:
(§1) Affinity is expressed in terms of inhibition constant (Ki) of the compounds of the invention for DAT, NET and SERT, and it is typically calculated from the IC50 values obtained in competition experiments using Cheng and Prusoff equation (Cheng and Prusoff, Biochem. Pharmacol. 22:3099, 1973). In the context of the present invention pKi values (corresponding to the antilogarithm of Ki) are used instead of Ki; pKi are only estimated to be accurate to about 0.3 log unit.
(§2) Chinese Hamster Ovary (CHO) cells stably expressing either human DAT (hDAT-CHO) or human NET (hNET-CHO) or human SERT (hSERT-CHO) are used for the membrane preparations for radioligand binding assays using Scintillation proximity Assay (SPA) technique. Each cell line is cultured independently in F-12K Nutrient Mixture containing 10% of Fetal Bovine Serum (FBS) supplemented with 450 μg/ml G-418. When cells are at 70-80% of confluence 3 mM Na Butyrate was added to the cell culture medium. After 24 h of incubation, the culture medium was removed and the cells detached with Versene (DAT) or by scraping (NET and SERT). Cell suspension is centrifuged at 41,000 g for 10 minutes at 4° C. The resultant pellets are re-suspended in 15 volumes of Ice-cold buffer (20 mM HEPES, 145 mM NaCl, 5 mM KCl, pH7.3), homogenized using an Ultra Turrax homogeniser and centrifuged as before. The resultant membrane pellets are re-suspended in up to 15 volume of ice-cold buffer, incubated for 20 minutes at 37° C and centrifuged as before at 41,000 g. The final membrane pellets are re-suspended into 5-10 volumes of ice-cold buffer, dispensed into 0.5 ml aliquots and stored at −80° C. until use. Protein concentration for each preparation is determined using Bio-Rad Protein Assay Kit.
(§3) The affinity of the compounds of the invention to the human DAT or NET or SERT transporters is assessed by using the [^3H]WIN-35,428 or [^3H]nisoxetine or [^3H]citalopram binding assays in recombinant human DAT, NET and SERT membranes with the SPA technology. The final assay volume is 50 μL in 384 well plates.
(§4) Briefly, 0.5 μL of test compound in neat DMSO or 0.5 μL of DMSO for total binding (TB) or 0.5 μL of indatraline 1 mM (10 μM final concentration) for non specific binding (NSB) are added to the assay plate. 50 μL of the SPA mixture is added to each well, containing: 30 μg/mL or 10 μg/mL or 25 μg/mL DAT, NET, SERT membranes, respectively; 5 nM [^3H]WIN-35,428 or 5 nM [^3H]nisoxetine or 1 nM [^3H]citalopram, for DAT, NET, SERT assay, respectively; 2.5 mg/mL or 1 mg/mL or 4 mg/mL WGA-PVT SPA beads (PerkinElmer RPNQ0001, for DAT, NET, SERT assay, respectively. All components are added to Assay Buffer (20 mM HEPES pH 7.4, 145 mM NaCl, 5 mM KCl, 0.01% Pluronic F-127). 0.02% BSA was used for DAT binding only. Plates are sealed with Topseal A and centrifuged 1 min, 800 rpm. Plates are loaded into a 1450 Microbeta TriLux (Perkin-Elmer) plate reader and the radioactivity counted after at least 4 hrs or overnight incubation at room temperature. Curve fitting and IC50 estimations are performed using a four parameter model in XLfit (IDBS, Guilford, UK) for Microdoft Excel (Microsoft, Redmond, Wash.).
The potency of the compounds of the invention in blocking the DAT function is measured using an uptake assay in a recombinant CHO cell line expressing human DAT (hDAT-CHO). Potency is measured in terms of pIC50 by testing the compounds of invention for the inhibition of [^3H]-dopamine uptake in DAT-CHO cells using a SPA technology in 384 well format.
Briefly, on the days of the experiment hDAT-CHO cells are detached using Versene and added (75,000 cells/mL) to the SPA Mixture, which contains the following components in Assay Buffer (20 mM HEPES, 145 mM NaCl, 5 mM KCl, 2 mM CaCl2, 1 mM MgCl2 and 1 g/L glucose, pH 7.3): 0.02% w/v of Pluronic F127, 2 mg/mL SPA Imaging beads (RPNQ0260, PerkinElmer), 10 μM pargyline and 80 nM of [^3H]-dopamine. […]
On the technique in general: SPA uses beads or plates that emit light when radiolabelled molecules are held near them.

For data set [3], the target named is human serotonin transporter (SERT) (Homo sapiens (Human), UniProt P31645). In words: Scintillation Proximity Assay (SPA) for human SERT binding ([3H]citalopram). The following applies: recombinant human SERT, CHO membranes.
human serotonin transporter (SERT), sequence (P31645 whole entry): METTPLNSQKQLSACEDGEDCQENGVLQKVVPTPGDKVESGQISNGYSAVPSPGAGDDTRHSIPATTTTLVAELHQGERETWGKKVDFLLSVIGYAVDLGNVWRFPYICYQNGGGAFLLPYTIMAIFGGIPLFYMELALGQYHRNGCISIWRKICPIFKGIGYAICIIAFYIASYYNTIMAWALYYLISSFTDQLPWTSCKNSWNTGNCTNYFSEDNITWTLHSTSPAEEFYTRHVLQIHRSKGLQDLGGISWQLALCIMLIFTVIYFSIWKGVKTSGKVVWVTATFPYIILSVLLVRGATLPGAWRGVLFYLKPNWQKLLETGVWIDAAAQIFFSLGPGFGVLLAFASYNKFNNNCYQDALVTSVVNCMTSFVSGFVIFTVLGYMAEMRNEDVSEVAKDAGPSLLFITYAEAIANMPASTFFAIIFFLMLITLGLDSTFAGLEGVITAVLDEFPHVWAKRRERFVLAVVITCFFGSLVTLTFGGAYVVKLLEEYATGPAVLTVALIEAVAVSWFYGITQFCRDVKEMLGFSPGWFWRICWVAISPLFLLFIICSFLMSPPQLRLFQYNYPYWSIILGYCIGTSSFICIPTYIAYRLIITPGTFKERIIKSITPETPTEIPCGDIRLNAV
Description: as §1, §2, §3, §4

For data set [4], the target named is human norepinephrine transporter (NET) (Homo sapiens (Human), UniProt P23975). The data set is described as follows: Scintillation Proximity Assay (SPA) for human NET binding ([3H]nisoxetine). Particulars: recombinant human NET, CHO membranes.
human norepinephrine transporter (NET), sequence (P23975 whole entry): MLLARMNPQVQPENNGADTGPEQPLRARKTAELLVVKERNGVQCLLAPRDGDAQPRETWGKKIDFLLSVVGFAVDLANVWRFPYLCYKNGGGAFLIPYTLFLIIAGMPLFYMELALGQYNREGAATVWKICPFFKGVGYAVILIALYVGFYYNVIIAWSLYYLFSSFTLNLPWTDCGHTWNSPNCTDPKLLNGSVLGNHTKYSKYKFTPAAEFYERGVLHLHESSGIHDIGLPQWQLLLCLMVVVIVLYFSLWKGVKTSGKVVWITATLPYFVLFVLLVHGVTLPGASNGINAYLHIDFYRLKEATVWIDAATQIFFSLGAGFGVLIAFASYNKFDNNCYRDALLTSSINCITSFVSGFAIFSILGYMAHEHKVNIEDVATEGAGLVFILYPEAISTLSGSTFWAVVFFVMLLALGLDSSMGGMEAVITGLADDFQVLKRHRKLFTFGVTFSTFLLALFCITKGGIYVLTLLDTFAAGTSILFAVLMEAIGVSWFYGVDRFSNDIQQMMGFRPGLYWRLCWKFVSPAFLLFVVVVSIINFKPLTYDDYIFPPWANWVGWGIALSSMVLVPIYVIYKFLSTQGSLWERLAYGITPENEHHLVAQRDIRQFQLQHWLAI
Description: as §1, §2, §3, §4

human dopamine transporter (DAT), sequence (Q01959 whole entry): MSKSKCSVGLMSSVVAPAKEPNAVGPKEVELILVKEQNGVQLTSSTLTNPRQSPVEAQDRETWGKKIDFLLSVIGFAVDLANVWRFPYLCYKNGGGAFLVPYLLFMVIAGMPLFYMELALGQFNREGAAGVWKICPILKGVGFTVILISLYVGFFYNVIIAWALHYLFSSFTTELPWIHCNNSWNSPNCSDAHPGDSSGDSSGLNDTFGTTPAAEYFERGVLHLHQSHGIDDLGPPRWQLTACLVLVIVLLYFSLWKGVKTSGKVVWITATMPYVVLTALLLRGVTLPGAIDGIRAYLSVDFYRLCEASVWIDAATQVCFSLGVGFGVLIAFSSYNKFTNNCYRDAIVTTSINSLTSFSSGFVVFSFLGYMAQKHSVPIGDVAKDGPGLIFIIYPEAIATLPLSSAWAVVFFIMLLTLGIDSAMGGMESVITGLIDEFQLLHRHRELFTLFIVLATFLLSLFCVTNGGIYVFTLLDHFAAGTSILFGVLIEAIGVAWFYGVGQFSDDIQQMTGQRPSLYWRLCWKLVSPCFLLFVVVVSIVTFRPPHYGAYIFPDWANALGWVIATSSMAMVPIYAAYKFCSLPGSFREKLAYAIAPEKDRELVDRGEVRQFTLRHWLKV

With `NCC1(O)CCN(c2nc(Oc3cccc(F)c3)cc(C(F)(F)F)n2)C1` (stereo not shown) [Example 33, 3-(aminomethyl)-1-[4-(3-fluorophenoxy)-6-(trifluoromethyl)pyrimidin-2-yl]pyrrolidin-3-ol], in data set [1], the “pIC50 hERG” value amounted to 5.8. For the same compound, the “pIC50 DAT” value in data set [2] is given as 8.86. Moreover, the IC50 in data set [3] is 19.1 µM. In addition, in data set [4], the “pIC50 NET” value is given as 6.52.
The matching figures for `CNCC1(O)CCN(c2nc(Oc3cccc(F)c3)cc(C(F)(F)F)n2)CC1` [Example 5, 1-[4-(3-fluorophenoxy)-6-(trifluoromethyl)pyrimidin-2-yl]-4-[(methylamino)methyl]piperidin-4-ol]: 5.7, 8.33, 23.4 µM and 6.61.
As for `Cl.OC1(CN2CCCNCC2)CCN(c2nc(Oc3cccc(F)c3)cc(C(F)(F)F)n2)CC1` [Example 7, 4-(1,4-diazepan-1-ylmethyl)-1-[4-(3-fluorophenoxy)-6-(trifluoromethyl)pyrimidin-2-yl]piperidin-4-ol hydrochloride], the “pIC50 hERG” value in data set [1] amounted to 5.8. Besides, the “pIC50 DAT” value in data set [2] is 8.06. Besides, the IC50 in data set [3] was 2.95 µM. The “pIC50 NET” value in data set [4] is listed as 6.53.
As to `NCC1(F)CCN(c2nc(Oc3cccc(F)c3)cc(C(F)(F)F)n2)CC1` [Example 13, {4-fluoro-1-[4-(3-fluorophenoxy)-6-(trifluoromethyl)pyrimidin-2-yl]piperidin-4-yl}methanamine], in data set [1], the “pIC50 hERG” value is listed as 5.4. Also, the “pIC50 DAT” value in data set [2] amounted to 8.31. Besides, the IC50 in data set [3] was 7.24 µM. In data set [4], the “pIC50 NET” value came out at 6.40.
Consider `OC1(CN2CCCC2)CCN(c2nc(Oc3cccc(F)c3)cc(C(F)(F)F)n2)CC1` [Example 2, 1-[4-(3-fluorophenoxy)-6-(trifluoromethyl)pyrimidin-2-yl]-4-(pyrrolidin-1-ylmethyl)piperidin-4-ol], for which the “pIC50 hERG” value in data set [1] was found to be 6.7. Moreover, the “pIC50 DAT” value in data set [2] came out at 8.80. Also, in data set [3], the 50% inhibitory concentration (IC50) was 17 µM. The “pIC50 NET” value in data set [4] came out at 7.57.
As for `CN(C)CC1(O)CCN(c2nc(Oc3cccc(F)c3)cc(C(F)(F)F)n2)CC1` [Example 1, 4-[(dimethylamino)methyl]-1-[4-(3-fluorophenoxy)-6(trifluoromethyl)pyrimidin-2-yl]piperidin-4-ol], in data set [1], the “pIC50 hERG” value amounted to 6.6. Besides, in data set [2], the “pIC50 DAT” value was found to be 8.46. For the same compound, in data set [3], the concentration for half-maximal inhibition (IC50) was 13.5 µM. Also, the “pIC50 NET” value in data set [4] turned out to be 7.00.
As for `Cl.Fc1cccc(Oc2cc(C(F)(F)F)nc(N3CCC4NCCCC4C3)n2)c1` (stereo not shown) [Example 39, 6-[4-(3-fluorophenoxy)-6-(trifluoromethyl)pyrimidin-2-yl]-decahydro-1,6-naphthyridine hydrochloride], in data set [1], the “pIC50 hERG” value came to 6.2. In addition, in data set [2], the “pIC50 DAT” value was 8.90. In data set [3], the IC50 is 3.02 µM. For the same compound, in data set [4], the “pIC50 NET” value was 7.51.
On the same counts, the results for `NCC1(O)CCN(c2nc(Oc3cccc(F)c3)cc(C(F)(F)F)n2)CC1` [Example 11, 4-(aminomethyl)-1-[4-(3-fluorophenoxy)-6-(trifluoromethyl)pyrimidin-2-yl]piperidin-4-ol] are 5.8, 8.72, 7.59 µM and 6.46.
As for `Fc1cccc(Oc2cc(C(F)(F)F)nc(N3CCc4nc[nH]c4C3)n2)c1` [Example 36, 4-(3-fluorophenoxy)-2-{3H,4H,5H,6H,7H-imidazo[4,5-c]pyridin-5-yl}-6-(trifluoromethyl)pyrimidine], the “pIC50 hERG” value in data set [1] is 5.6. For the same compound, in data set [2], the “pIC50 DAT” value stood at 7.90. Besides, the concentration for half-maximal inhibition (IC50) in data set [3] was more than 100 µM. Also, the “pIC50 NET” value in data set [4] was 6.01.
For `NCC1(O)CCN(c2cc(F)c(F)c(Oc3cccc(F)c3)c2)CC1` [Example 19, 4-(aminomethyl)-1-[3,4-difluoro-5-(3-fluorophenoxy)phenyl]piperidin-4-ol], in data set [1], the “pIC50 hERG” value turned out to be 6.1. The “pIC50 DAT” value in data set [2] was 8.02. In data set [3], the IC50 was 0.363 µM. The “pIC50 NET” value in data set [4] was found to be 6.10.
As to `O=C(NCC1(O)CCN(c2nc(Oc3cccc(F)c3)cc(C(F)(F)F)n2)CC1)C1CNC1` [Example 25, N-({1-[4-(3-fluorophenoxy)-6-(trifluoromethyl)pyrimidin-2-yl]-4-hydroxypiperidin-4-yl}methyl)azetidine-3-carboxamide], the concentration for half-maximal inhibition (IC50) in data set [1] is more than 10 µM; in data set [3], 35.5 µM. In addition, in data set [2], the “pIC50 DAT” value came to 8.30. Also, the “pIC50 NET” value in data set [4] is on record as 5.70.
“(3S or 3R)-3-[(cyclopropylamino)methyl]-1-[4-(3-fluorophenoxy)-6-(trifluoromethyl)pyrimidin-2-yl]pyrrolidin-3-ol [Example 31]”: the “pIC50 hERG” value in data set [1] was 5.7. The “pIC50 DAT” value in data set [2] came out at 8.75. Moreover, the “pIC50 SERT” value in data set [3] is given as 4.46. The “pIC50 NET” value in data set [4] came out at 6.86.
For the compound `NCC1(O)CCN(c2cc(Oc3cccc(F)c3)cc(F)c2F)CC1` [Example 18, 4-(aminomethyl)-1-[2,3-difluoro-5-(3-fluorophenoxy)phenyl]piperidin-4-ol], the “pIC50 hERG” value in data set [1] turned out to be 6.0. The “pIC50 DAT” value in data set [2] was 9.05. Also, the half-inhibitory concentration (IC50) in data set [3] is 6.17 µM. In data set [4], the “pIC50 NET” value stood at 7.51.

The IC50 is the point on the concentration scale where inhibition reaches its midpoint.
